Source: BigSolDB 2.1

O=C1C2C3C=CC(C3)C2C(=O)N1O (stereo not drawn)
solubility (mole fraction)
Details	278.15 K	283.15 K	288.15 K	293.15 K	298.15 K	303.15 K	308.15 K	313.15 K	318.15 K	323.15 K
in 1,4-dioxane	–	–	0.0796	0.0879	0.0963	0.107	0.115	0.128	0.138	0.153
in 2-butoxyethanol	0.035	0.0408	0.0458	0.0536	0.0601	0.068	0.077	0.087	0.0989	0.11
in 2-ethoxyethanol	0.0699	0.0774	0.0856	0.093	0.101	0.112	0.121	0.132	0.144	0.158
in 2-methoxyethanol	0.106	0.115	0.122	0.131	0.141	0.154	0.164	0.179	0.188	0.205
in 2-propoxyethanol	0.0446	0.0502	0.0566	0.0645	0.0718	0.0804	0.0896	0.0998	0.112	0.123
in acetone	0.0266	0.0317	0.0374	0.0447	0.052	0.0606	0.0706	0.0817	0.0938	0.108
in acetonitrile	0.0165	0.0201	0.0223	0.0258	0.0298	0.034	0.0387	0.0443	0.0505	0.0587
in ethanol	0.0303	0.0352	0.042	0.051	0.0592	0.0703	0.082	0.0969	0.112	0.131
in ethyl acetate	0.00721	0.00912	0.0112	0.0134	0.0156	0.0192	0.0229	0.0271	0.0323	0.0373
in isopropanol	0.0197	0.0238	0.0287	0.0338	0.0403	0.0495	0.0577	0.0672	0.0774	0.089
in methanol	0.0706	0.0796	0.0896	0.102	0.111	0.128	0.138	0.151	0.167	0.181
in n-propanol	0.0192	0.0231	0.0274	0.034	0.0401	0.0488	0.0572	0.0651	0.0744	0.0885
